Measurements from patent publication US20200179428A1, “CYCLIC PHOSPHATE SUBSTITUTED NUCLEOSIDE DERIVATIVES AND METHODS OF USE THEREOF FOR THE TREATMENT OF VIRAL DISEASES” (priority 2016, published 2020).

Tests used:
[1] = Cytotoxicity MTS assay (CellTiter 96 Aqueous One Solution) in replicon cells; assay type: cell-based; conditions: HCV replicon cells (1b-Con1); EDU; read-out: CC50 (EDU) Range
[2] = system: replicon cells (1b-Con1); assay: Replicon activity assay (replicon RNA level by real-time RT-PCR, Taqman); assay type: cell-based; conditions: Hepatitis C virus, HCV replicon genotype 1b; read-out: EC50 (1b) Range
Outline: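 HCV 1b-Con1 replicon cells treated 3 days with 10-point twofold serial dilutions in triplicate (0.5% DMSO, 10% FBS); replicon RNA quantified by Taqman real-time RT-PCR normalised to GAPDH, EC50 derived. Cytotoxicity by MTS read-out at day 3 on identically treated cells.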

Compound	CC50 at 3 days [1]	EC50 [2]
CC(C)OC(=O)C(C)CCOP1(=O)OC[C@H]2O[C@@H](n3ccc(=O)[nH]c3=O)[C@](C)(N)[C@@H]2O1 (stereo partly shown) [Compound 10A]	> 50 µM	> 10 µM
CC(CCO[P@@]1(=O)OC[C@H]2O[C@@H](n3ccc(=O)[nH]c3=O)[C@](C)(N)[C@@H]2O1)C(=O)OC1CCCCC1 (stereo partly shown) [Compound 78A]	> 50 µM	> 10 µM
CC(C)OC(=O)C(C)CCOP1(=O)OC[C@H]2O[C@@H](n3cnc4c(N)ncnc43)[C@](C)(Cl)[C@@H]2O1 (single isomer, unassigned) [Compound 35A1]	> 50 µM	≤ 0.25 µM
C[C@@]1(N)[C@@H]2O[P@@](=O)(OCCC3CCOC3=O)OC[C@H]2O[C@H]1n1ccc(=O)[nH]c1=O (stereo partly shown) [Compound 46A]	> 50 µM	> 10 µM
CC(C)OC(=O)C1CC1CO[P@@]1(=O)OC[C@H]2O[C@@H](n3ccc(=O)[nH]c3=O)[C@](C)(N)[C@@H]2O1 (stereo partly shown) [Compound 47A]	> 50 µM	> 10 µM
C#C[C@]1(C)[C@@H]2O[P@](=O)(OC[C@@H](F)CC(=O)OC(C)C)OC[C@H]2O[C@H]1n1ccc(=O)[nH]c1=O [Compound 64B]	> 50 µM	0.25 to 1 µM
C#C[C@]1(C)[C@@H]2O[P@](=O)(OCC[C@H](OC(C)=O)C(=O)OC(C)C)OC[C@H]2O[C@H]1n1ccc(=O)[nH]c1=O [Compound 51B]	> 50 µM	≤ 0.25 µM
C[C@@]1(N)[C@@H]2O[P@](=O)(OCCC3CCOC3=O)OC[C@H]2O[C@H]1n1ccc(=O)[nH]c1=O (stereo partly shown) [Compound 46B]	> 50 µM	> 10 µM
CC(C)OC(=O)C(C)(C)CO[P@@]1(=O)OC[C@H]2O[C@@H](n3ccc(=O)[nH]c3=O)[C@](C)(N)[C@@H]2O1 [Compound 15A]	> 50 µM	> 10 µM
C[C@@]1(N)[C@@H]2O[P@](=O)(OCCC3(C(=O)OC4CCCC4)CC3)OC[C@H]2O[C@H]1n1ccc(=O)[nH]c1=O [Compound 26B]	> 50 µM	> 10 µM
CC(C)OC(=O)COCCO[P@]1(=O)OC[C@H]2O[C@@H](n3ccc(=O)[nH]c3=O)[C@](C)(N)[C@@H]2O1 [Compound 69B]	> 50 µM	> 10 µM
C#C[C@]1(C)[C@@H]2O[P@](=O)(OCCOCC(=O)OC(C)C)OC[C@H]2O[C@H]1n1ccc(=O)[nH]c1=O [Compound 68B]	> 50 µM	1 to 10 µM
CC(C)OC(=O)C[C@@H](F)CO[P@@]1(=O)OC[C@H]2O[C@@H](n3ccc(=O)[nH]c3=O)[C@](C)(N)[C@@H]2O1 [Compound 67A]	> 50 µM	> 10 µM
CC(C)OC(=O)CC(C)(C)CO[P@]1(=O)OC[C@H]2O[C@@H](n3ccc(=O)[nH]c3=O)[C@](C)(N)[C@@H]2O1 [Compound 17B]	> 50 µM	> 10 µM
COC(=O)N[C@H](CO[P@@]1(=O)OC[C@H]2O[C@@H](n3ccc(=O)[nH]c3=O)[C@](C)(C#N)[C@@H]2O1)C(=O)OC(C)C [Compound 41A]	> 50 µM	> 10 µM
CC(C)OC(=O)C(C)(C)CO[P@]1(=O)OC[C@H]2O[C@@H](n3ccc(=O)[nH]c3=O)[C@](C)(C#N)[C@@H]2O1 [Compound 16B]	> 50 µM	> 10 µM
C#C[C@]1(C)[C@@H]2O[P@@](=O)(OCCC(C(=O)OC(C)C)C(C)C)OC[C@H]2O[C@H]1n1ccc(=O)[nH]c1=O (stereo partly shown) [Compound 32A]	> 50 µM	> 10 µM
C#C[C@]1(C)[C@@H]2O[P@@](=O)(OCCOCC(=O)OC(C)C)OC[C@H]2O[C@H]1n1ccc(=O)[nH]c1=O [Compound 68A]	> 50 µM	> 10 µM
C#C[C@]1(C)[C@@H]2O[P@](=O)(OCCC(C)C(=O)OC3CCCCC3)OC[C@H]2O[C@H]1n1ccc(=O)[nH]c1=O (stereo partly shown) [Compound 77B]	> 50 µM	≤ 0.25 µM
CC(CCO[P@@]1(=O)OC[C@H]2O[C@@H](n3ccc(=O)[nH]c3=O)[C@](C)(N)[C@@H]2O1)CC(=O)OC(C)C (stereo partly shown) [Compound 21A]	> 50 µM	> 10 µM
